Data taken from ChEMBL document CHEMBL1201862, “PubChem BioAssay data set” (2004).
Structures can show the parent of a compound that is named as a salt.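 Each compound was tested at five concentrations against cells in 96-well plates for 48 hours. GI50: concentration for 50% inhibition of growth.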 Activity calls are given as the source filed them. Cut-off read from the data, not from the text of the source: active = GI50 up to about 1.1 µM and inactive = higher.

What was measured:
Assay in all cases: DTP human tumour cell line panel, 48 h
A549 = test system: A549
CCRF-CEM = test system: CCRF-CEM
COLO 205 = test system: COLO 205
HCT-116 = test system: HCT-116
HOP-92 = test system: HOP-92
IGROV-1 = test system: IGROV-1
MCF7 = test system: MCF7
MOLT-4 = test system: MOLT-4
NCI-H522 = test system: NCI-H522
OVCAR-3 = test system: OVCAR-3
RPMI-8226 = test system: RPMI-8226
SF-539 = test system: SF-539
SK-MEL-5 = test system: SK-MEL-5
SK-OV-3 = test system: SK-OV-3
SN12C = test system: SN12C
SR = test system: SR
SW-620 = test system: SW-620
T47D = test system: T47D
TK-10 = test system: TK-10
LXFL 529 = test system: LXFL 529

Measured: GI50

Cc1ccc(S(=O)(=O)N2CCC(C(=O)O)(c3ccccc3)CC2)cc1
inactive: A549 > 100 µM | CCRF-CEM > 100 µM | COLO 205 > 100 µM | HCT-116 > 100 µM | HOP-92 > 100 µM | IGROV-1 > 100 µM | MCF7 > 100 µM | MOLT-4 > 100 µM | NCI-H522 > 100 µM | OVCAR-3 > 100 µM | RPMI-8226 > 100 µM | SF-539 > 100 µM | SK-MEL-5 > 100 µM | SK-OV-3 > 100 µM | SN12C > 100 µM | SR > 100 µM | SW-620 > 100 µM | T47D > 100 µM | TK-10 > 100 µM

Cn1c2c(c3ccccc31)CCN(CCCCN1CCc3c(n(C)c4ccccc34)C1=O)C2
inactive: A549 > 100 µM | CCRF-CEM > 100 µM | COLO 205 > 100 µM | HCT-116 > 100 µM | HOP-92 > 100 µM | IGROV-1 > 100 µM | LXFL 529 > 100 µM | MOLT-4 > 100 µM | NCI-H522 > 100 µM | OVCAR-3 > 100 µM | RPMI-8226 > 100 µM | SF-539 47.5 µM | SK-MEL-5 > 100 µM | SK-OV-3 92.7 µM | SN12C > 100 µM | SW-620 > 100 µM | TK-10 > 100 µM

CC1=C(C(=O)Nc2ccccc2C)C(/C=C/c2ccccc2)C(C(=O)Nc2ccccc2C)=C(C)N1
inactive: A549 99.3 µM | CCRF-CEM 82.6 µM | COLO 205 > 100 µM | HCT-116 > 100 µM | HOP-92 80 µM | IGROV-1 > 100 µM | LXFL 529 > 100 µM | NCI-H522 67.1 µM | OVCAR-3 > 100 µM | SF-539 > 100 µM | SK-MEL-5 > 100 µM | SK-OV-3 > 100 µM | SN12C > 100 µM | SW-620 > 100 µM | TK-10 > 100 µM

COc1cc(C2C(Cl)C(=O)N2NC(=O)c2ccc(N)cc2)cc(Br)c1O (stereo not given)
inactive: A549 21.5 µM | CCRF-CEM 2.92 µM | COLO 205 18.7 µM | HCT-116 10.4 µM | HOP-92 23 µM | IGROV-1 19.7 µM | LXFL 529 3.15 µM | MOLT-4 4.23 µM | NCI-H522 1.92 µM | OVCAR-3 8.38 µM | RPMI-8226 24.4 µM | SF-539 19.5 µM | SK-MEL-5 17.9 µM | SK-OV-3 28.5 µM | SN12C 17 µM | SW-620 15.2 µM | TK-10 18.5 µM

O=C(O)COc1ccc2c3c1C(=O)CCC3CO2 (stereo not given)
inactive: A549 > 100 µM | CCRF-CEM > 100 µM | COLO 205 > 100 µM | HCT-116 > 100 µM | HOP-92 > 100 µM | IGROV-1 > 100 µM | LXFL 529 > 100 µM | MOLT-4 > 100 µM | NCI-H522 > 100 µM | OVCAR-3 > 100 µM | RPMI-8226 > 100 µM | SF-539 > 100 µM | SK-MEL-5 > 100 µM | SK-OV-3 > 100 µM | SN12C > 100 µM | SW-620 > 100 µM | TK-10 > 100 µM

CN1CCN2c3ccccc3CC(C#N)(C#N)C2C1 (stereo not given)
inactive: A549 > 100 µM | CCRF-CEM > 100 µM | COLO 205 > 100 µM | HCT-116 > 100 µM | HOP-92 > 100 µM | IGROV-1 > 100 µM | LXFL 529 > 100 µM | MOLT-4 > 100 µM | NCI-H522 > 100 µM | OVCAR-3 > 100 µM | RPMI-8226 > 100 µM | SF-539 > 100 µM | SK-MEL-5 > 100 µM | SK-OV-3 > 100 µM | SN12C > 100 µM | SW-620 > 100 µM | TK-10 > 100 µM

CC(=O)Nc1ccc(-c2nnc(SCC(=O)Nc3ccccc3Cl)o2)cc1
inactive: A549 > 100 µM | CCRF-CEM > 100 µM | COLO 205 > 100 µM | HCT-116 44.1 µM | IGROV-1 > 100 µM | LXFL 529 > 100 µM | MOLT-4 > 100 µM | NCI-H522 > 100 µM | OVCAR-3 93.1 µM | SF-539 > 100 µM | SK-MEL-5 > 100 µM | SK-OV-3 > 100 µM | SN12C > 100 µM | SW-620 > 100 µM | TK-10 > 100 µM

CCCN(CCC)C(=O)c1c(Cl)c2cccnc2n2c(C)cnc12
inactive: A549 48.8 µM | CCRF-CEM 51.8 µM | COLO 205 49.5 µM | HCT-116 48.3 µM | HOP-92 73.3 µM | IGROV-1 64.4 µM | MCF7 47.9 µM | MOLT-4 33.3 µM | NCI-H522 > 100 µM | OVCAR-3 47.9 µM | RPMI-8226 39.5 µM | SF-539 > 100 µM | SK-MEL-5 37.8 µM | SK-OV-3 58.9 µM | SN12C > 100 µM | SR 32.9 µM | SW-620 23.2 µM | T47D 11.7 µM | TK-10 > 100 µM

Oc1ccc(SCc2cc(O)c(O)c(O)c2)cc1
inactive: A549 49.5 µM | CCRF-CEM 19.3 µM | COLO 205 18.7 µM | HCT-116 17.1 µM | HOP-92 > 100 µM | IGROV-1 20.5 µM | MCF7 20.4 µM | MOLT-4 27 µM | NCI-H522 22 µM | OVCAR-3 39.4 µM | RPMI-8226 26.7 µM | SF-539 82.8 µM | SK-MEL-5 18 µM | SK-OV-3 65.9 µM | SN12C 26.4 µM | SR 25.5 µM | SW-620 36.5 µM | T47D > 100 µM | TK-10 > 100 µM

CCOC(=O)C1S/C(=N\c2ccc(OC)c(OC)c2)N=C1C (stereo not given)
inactive: A549 34.8 µM | CCRF-CEM 22.1 µM | COLO 205 69.3 µM | HCT-116 32.7 µM | HOP-92 37.2 µM | IGROV-1 56.6 µM | LXFL 529 33.3 µM | NCI-H522 17 µM | OVCAR-3 29.5 µM | SF-539 53.2 µM | SK-MEL-5 18.4 µM | SK-OV-3 62.7 µM | SN12C 44.1 µM | SW-620 42.7 µM | TK-10 75.9 µM

C=C1C(=O)O[C@H](c2ccoc2)C[C@@H]1[C@@]1(C)CCCC2(C)C(=O)OCC21 (stereo not given in full)
inactive: A549 > 100 µM | CCRF-CEM > 100 µM | COLO 205 > 100 µM | HCT-116 > 100 µM | IGROV-1 > 100 µM | LXFL 529 > 100 µM | MOLT-4 > 100 µM | NCI-H522 > 100 µM | OVCAR-3 > 100 µM | RPMI-8226 > 100 µM | SF-539 > 100 µM | SK-MEL-5 > 100 µM | SK-OV-3 > 100 µM | SN12C > 100 µM | SW-620 > 100 µM | TK-10 > 100 µM

CC[C@@H]1C(=O)OC[C@@H]1Cc1cncn1C [PILOCARPINE HYDROCHLORIDE]
inactive: A549 > 100 µM | CCRF-CEM > 100 µM | COLO 205 > 100 µM | HCT-116 > 100 µM | HOP-92 > 100 µM | IGROV-1 > 100 µM | MCF7 > 100 µM | MOLT-4 > 100 µM | NCI-H522 > 100 µM | OVCAR-3 > 100 µM | RPMI-8226 > 100 µM | SF-539 > 100 µM | SK-MEL-5 > 100 µM | SK-OV-3 > 100 µM | SN12C > 100 µM | SR > 100 µM | SW-620 > 100 µM | T47D > 100 µM | TK-10 > 100 µM
